Literature values in patent publication US9636305B2, “Antiemetic extended release solid dosage forms” (RedHill Biopharma Ltd., priority 2013, dated 2017).

Settings: scale of Pliska et al., J. Chromatog. 216, 79, 1981

| hydropathy value | SMILES |
| --- | --- |
| −2.15 | N[C@@H](CC(=O)O)C(=O)O [aspartic acid] |
| 1.83 | CC[C@H](C)[C@H](N)C(=O)O [iso-leucine] |
| 0 | NCC(=O)O [glycine] |
